{"source": "patent US6599938B1", "about": "“Compounds having MIF antagonist activity” (The Picower Institute of Medical Research, priority 1999, dated 2003)", "key": {"MIF": {"molecular_target": "T1, MIF (Homo sapiens, UniProt P14174)", "T1 sequence (P14174 2-115 limits assumed)": "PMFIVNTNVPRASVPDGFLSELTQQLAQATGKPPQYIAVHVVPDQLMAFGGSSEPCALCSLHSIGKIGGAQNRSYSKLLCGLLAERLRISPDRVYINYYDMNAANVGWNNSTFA", "assay": "MIF dopachrome tautomerase assay", "assay_type": "biochemical", "settings": "for IC50: MIF tautomerase activity, L-dopachrome methyl ester substrate; for MIF antagonist activity: D amino acid compounds compared with compounds 8-10"}, "[1]": {"system": "quiescent NIH/3T3 fibroblasts", "assay": "Inhibition of MIF-dependent serum-induced proliferation of quiescent NIH/3T3 fibroblasts", "assay_type": "cell-based", "settings": "for MIF inhibitory activity (inhibition of MIF induced proliferation in quiescent NIH/3T3 cell cultures): NIH/3T3 cell proliferation assay"}, "[2]": {"system": "primary murine embryonic fibroblasts", "assay": "Neutralization of rMIF rescue from serum-withdrawal apoptosis", "assay_type": "cell-based", "settings": "serum-free + rMIF 50 ng/ml; for neutralizing MIF-mediated protection from apoptosis (persistence of apoptosis despite rMIF): FIG. 2, test compound 1 or 10 μM, compared with anti-MIF mAb", "description": "FIG. 2 compares the activity of MIF antagonist agents of the present invention (and more particularly compounds according to Formula I) to neutralize the MIF-mediated protection from apoptosis induced in cultured murine embryonic fibroblasts, which apoptotic response (cell death) is initiated by withdrawal of serum. In this assay, withdrawal of serum initiates an apoptotic response, but the cells can be rescued by addition of recombinant MIF (rMIF) to the culture medium. […] This antagonistic effect on MIF bioactivity in vitro is predictive of clinical utility of the active MIF antagonist agent.\nIn the illustrative experiments, cultured embryonic fibroblasts are induced to enter apoptosis (cell death) as a result of serum withdrawal. These cultures can be “rescued” by treatment with MIF. Thus, test compounds are conveniently assayed for MIF antagonist activity by reference to the activity of the compounds to neutralize the effect of added MIF in the apoptosis assay; that is, by the persistence of apoptosis (cell death) in serum-free culture conditions despite the addition of MIF. In this regard, anti-MIF antibodies are known to antagonize MIF and serve as a convenient positive control.\nBriefly, primary murine embryonic fibroblasts are distributed into 6-well cell culture plates at 2×10^5 cells/well. Cells are subsequently cultured overnight under standard conditions in 10% serum-containing medium (+serum) or in serum-free medium (+serum-free) in the absence or presence of recombinant human MIF (rMIF) at 50 ng/ml. […] Cell lysates are analyzed for apoptosis by any of a variety of convenient methods, such as ELISA for fragmented DNA. Results shown are the mean+/−SD of duplicate samples and are representative of replicated experiments."}}, "note": "Values joined by “and” are separate entries in the source; they are usually repeats but may differ in a detail not shown here. Equal values may be shown once. “Also recorded” adds a separate entry of the source. Read-outs that look alike come from different tables or passages of the source."}
{"compound": "COC(=O)CN=Cc1ccc(O)cc1", "note": "[compound 1]", "values": [{"measurement": "IC50", "setting": "MIF; read-out: Inhibition (IC50)", "value": "> 100", "unit": "µM"}]}
{"compound": "COC(=O)[C@H](Cc1ccccc1)N=Cc1ccc(O)cc1", "note": "[compound 8, L-PheME/parahydroxybenzaldehyde Schiff base]", "values": [{"measurement": "IC50", "setting": "MIF; read-out: Inhibition (IC50)", "value": "~50 µM and 50 µM"}, {"measurement": "MIF inhibitory activity (inhibition of MIF induced proliferation in quiescent NIH/3T3 cell cultures)", "setting": "[1]", "value": "Neither compound 8 (corresponding to L-PheME/parahydroxybenzaldehyde Schiff base) nor compound 10b (corresponding to D-TrpME/parahydroxybenzaldehyde Schiff base) exhibited anti-MIF biological activity"}]}
{"compound": "COC(=O)[C@@H](Cc1ccccc1)N=Cc1ccc(O)cc1", "note": "[compound 8b]", "values": [{"measurement": "MIF antagonist activity", "setting": "MIF", "value": "significantly less MIF antagonist activity"}]}
{"compound": "COC(=O)[C@H](Cc1ccc(O)cc1)N=Cc1ccc(O)cc1", "note": "[compound 9, L-TyrME/parahydroxybenzaldehyde Schiff base]", "values": [{"measurement": "IC50", "setting": "MIF; read-out: Inhibition (IC50)", "value": "~10 µM and 10 µM"}, {"measurement": "MIF inhibitory activity (inhibition of MIF induced proliferation in quiescent NIH/3T3 cell cultures)", "setting": "[1]", "value": "exhibited MIF inhibitory activity"}]}
{"compound": "COC(=O)[C@H](Cc1c[nH]c2ccccc12)N=Cc1ccc(O)cc1", "note": "[compound 10]", "values": [{"measurement": "suppression of serum-induced cell proliferation", "setting": "[1]; FIG. 1, 10 μM, 10% serum, [3H]-thymidine incorporation, compared with anti-MIF mAb 100 μg/ml", "value": "as effective an MIF antagonist as a neutralizing anti-MIF monoclonal antibody"}, {"measurement": "MIF inhibitory activity (inhibition of MIF induced proliferation in quiescent NIH/3T3 cell cultures)", "setting": "[1]", "value": "exhibited MIF inhibitory activity"}, {"measurement": "antagonism of the bioactivity of MIF in apoptosis assay", "setting": "[2]; 10 μM", "value": "significantly antagonizes the bioactivity of MIF"}, {"measurement": "neutralizing MIF-mediated protection from apoptosis (persistence of apoptosis despite rMIF)", "setting": "[2]", "value": "as effective an MIF antagonist agent as is a neutralizing anti-MIF monoclonal antibody; also recorded: as effective as a monoclonal anit-MIF antibody treatment at neutralizing rMIF; also recorded: dose-related effect"}]}
{"compound": "COC(=O)[C@@H](Cc1c[nH]c2ccccc12)N=Cc1ccc(O)cc1", "note": "[compound 10b, D-tryptophan/para-hydroxybenzaldehyde Schiff base]", "values": [{"measurement": "MIF antagonist activity", "setting": "MIF", "value": "significantly less MIF antagonist activity"}, {"measurement": "neutralizing MIF-mediated protection from apoptosis (persistence of apoptosis despite rMIF)", "setting": "[2]", "value": "but not compound 10b (D-tryptophan/para-hydroxybenzaldehyde Schiff base), was as effective as a monoclonal anit-MIF antibody treatment at neutralizing rMIF"}]}
{"compound": "COC(=O)C(Cc1ccc(O)cc1)N=Cc1ccccc1O", "note": "(centres unmarked) [compound 18]", "values": [{"measurement": "IC50", "setting": "MIF; read-out: Inhibition IC50", "value": "> 100", "unit": "µM"}]}
{"compound": "COC(=O)C(Cc1ccc(O)cc1)N=Cc1cccc(O)c1O", "note": "(centres unmarked) [compound 20]", "values": [{"measurement": "IC50", "setting": "MIF; read-out: Inhibition IC50", "value": "> 100", "unit": "µM"}]}
{"compound": "COC(=O)C(Cc1ccc(O)cc1)N=Cc1ccc(O)c(O)c1", "note": "(centres unmarked) [compound 21]", "values": [{"measurement": "IC50", "setting": "MIF; read-out: Inhibition IC50", "value": "> 100", "unit": "µM"}]}
{"compound": "COC(=O)[C@H](Cc1ccc(O)cc1)N=Cc1ccc(F)cc1", "note": "[compound 24]", "values": [{"measurement": "IC50", "setting": "MIF; read-out: Inhibition IC50", "value": "> 100", "unit": "µM"}]}
{"compound": "COC(=O)[C@H](Cc1c[nH]c2ccccc12)N=Cc1ccc(F)cc1", "note": "[compound 29]", "values": [{"measurement": "IC50", "setting": "MIF; read-out: Inhibition IC50", "value": "> 100", "unit": "µM"}]}
